Tested on: human skin fibroblasts (WS1)
Test: Cell proliferation of normal cells, crystal violet method
Format: cell-based
Conditions: at the indicated concentrations (not given); FIG. 17
Method: The compound according to the invention, and in particular the synthetic quercetin derivatives described and illustrated herein were investigated in vitro by using human tumour cells and assessing their impact on the tumour proliferative capacity, with regard to the tumours described above. In particular, the following human tumour cell lines were assessed experimentally: 1) HCT116, colon adenocarcinoma cells; 2) H1299, lung adenocarcinoma cells; 3) A375, melanoma cells, and 4) A431, squamous skin cell carcinoma; 5) 786-0, renal carcinoma cells; 6) PC3, prostate carcinoma cells; 7) BT549, mammary carcinoma cells; 8) CAL27, tongue carcinoma cells (belonging to the head-and-neck carcinomas); 9) HepG2, hepatocellular carcinoma cells; 10) PANC-1, pancreas carcinoma cells; 11) T24, bladder carcinoma cells; 12) OVCAR-3, ovarian carcinoma cells. In addition, a normal human cell line, WS1 (skin fibroblasts) was also treated with the novel synthetic compounds. Cell proliferation was quantified by the crystal violet method with a spectrophotometer. In short, after acquiring serial images (0, 24 and 48 hrs) with the EVOS XL Cell Imaging System microscope (Thermo Fisher Scientific), the cells imaged at 48 hrs were fixed with paraformaldehyde (4%) and stained with Crystal Violet (1%). Then, the specific absorbance (λ=590 nm) at 48 hrs was measured with a spectrophotometer (Infinite®200 PRO, Tecan). Data analysis was carried out by using ad-hoc Excel files for graphical representation and statistical processing (t-test). […] This tool allows cell growth to be monitored from electrical impedance-derived quantitative values (the so-called Cell Index) measured by tiny electrodes located at the base of the culture wells. Proliferation is monitored for several days (5-7) by setting a Cell Index per minute measure on the instrument. The data are analysed by processing various parameters calculated by the dedicated software, such as the cell duplication time, the slope and the Max Cell Index.

## 2-(3,4-Dihydroxyphenyl)-3-hexyloxy-5,7-dihydroxy-4H-chromen-4-one [Compound 2]
  proliferation of normal human skin fibroblasts (WS1) vs vehicle control: do not disrupt

— patent publication US12059400B2, “Medical compound” (VERA SALUS RICERCA S.R.L., priority 2017, dated 2024)
